Test results reported in US20240074442A1, “UVARIA GRANDIFLORA EXTRACT AS A BOTANICAL FUNGICIDE, PREPARATION METHOD THEREFOR, AND APPLICATION THEREOF” (HAINAN UNIVERSITY, priority 2021, published 2024).
≈ marks a conversion by molar mass, not a printed value. Where a name gives a salt, the structure may show the parent alone. Read-outs that look alike come from different tables or passages of the source.

How the values were obtained:
Gilbertella persicaria = test: Mycelial growth rate method, in vitro fungicidal activity; format: cell-based; conditions: G.P
Colletotrichum capsici = test: as above; format: cell-based; conditions: C.C, 50 μg mL^−1; for inhibition at 50 µg/mL: Colletotrichum truncatum
Fusarium graminearum = test: microbe, parasite or virus in culture; format: cell-based; conditions: for inhibition at 50 µg/mL: read-out: Inhibition rate (%)
Rhizoctonia solani = test: Mycelial growth rate method, in vitro fungicidal activity; format: cell-based; conditions: R.S
Phytophthora capsici [1] = test: as above; format: cell-based; conditions: P.C
Colletotrichum siamense = test: as above; format: cell-based; conditions: C.S, 50 μg mL^−1; for inhibition at 50 µg/mL: Colletotrichum siamense
Colletotrichum musae = test: as above; format: cell-based; conditions: C.M
[2] = system: Colletotrichum gloeosporioiles; test: as above; format: cell-based; conditions: C.G, 50 μg mL^−1; for inhibition at 50 µg/mL: Colletotrichum
Pyricularia oryzae = test: microbe, parasite or virus in culture; format: cell-based; conditions: for inhibition at 50 µg/mL: read-out: Inhibition rate (%)
[3] = system: Neoscytalidium dimidiatum; test: Mycelial growth rate method, in vitro fungicidal activity; format: cell-based; conditions: N.D, 50 μg mL^−1; for inhibition at 50 µg/mL: Neoscytalidium dimidiatum
Phytophthora capsici [4] = test: Potted fungicidal activity test, protective effect; conditions: in vivo
cowpea powdery mildew = test: Potted fungicidal activity test; conditions: in vivo
potato late blight = format: in vivo; conditions: potted
Cucumber downy mildew = test: Potted fungicidal activity test; format: in vivo, Pseudoperonospora cubensis; conditions: for Control effect (%): potted, cucumber downy mildew
[5] = Gilbertella persicaria, 50 μg mL^−1
[6] = Gilbertella persicaria, read-out: EC50
[7] = Rhizoctonia solani, 50 μg mL^−1
[8] = Rhizoctonia solani, read-out: EC50
[9] = Phytophthora capsici, 50 μg mL^−1
[10] = Phytophthora capsici, read-out: EC50
[11] = Colletotrichum musae, 50 μg mL^−1
[12] = Colletotrichum musae, read-out: EC50

| SMILES | Control effect (%) (Phytophthora capsici [4]) | Disease index (±SD) (Phytophthora capsici [4]) | inhibition at 50 µg/mL (Gilbertella persicaria; [5]) [%] | EC50 (Gilbertella persicaria; [6]) [µg/mL] | inhibition at 50 µg/mL (Colletotrichum capsici) [%] | EC50 (Fusarium graminearum; Fusarium graminearum) [µg/mL] | inhibition at 50 µg/mL (Fusarium graminearum; Fusarium graminearum) [%] | inhibition at 50 µg/mL (Rhizoctonia solani; [7]) [%] | EC50 (Rhizoctonia solani; [8]) [µg/mL] | inhibition at 50 µg/mL (Phytophthora capsici [1]; [9]) [%] | EC50 (Phytophthora capsici [1]; [10]) [µg/mL] | inhibition at 50 µg/mL (Colletotrichum siamense) [%] | inhibition at 50 µg/mL (Colletotrichum musae; [11]) [%] | EC50 (Colletotrichum musae; [12]) [µg/mL] | inhibition at 50 µg/mL [2] [%] | EC50 (Pyricularia oryzae; Pyricularia oryzae) [µg/mL] | inhibition at 50 µg/mL (Pyricularia oryzae; Pyricularia oryzae) [%] | inhibition at 50 µg/mL [3] [%] | other results |
| --- | --- | --- | --- | --- | --- | --- | --- | --- | --- | --- | --- | --- | --- | --- | --- | --- | --- | --- | --- |
| CO/C=C(/C(=O)OC)c1ccccc1Oc1cc(Oc2ccccc2C#N)ncn1 [Azoxystrobin] |  |  |  |  |  |  |  |  |  |  |  |  |  |  |  |  |  |  | EC50 (Gilbertella persicaria): 39.09 ± 0.05 µg/mL (≈ 96.9 µM); Inhibition rate (%) (Gilbertella persicaria; 50 μg mL^−1): 57.2%; Inhibition rate (%) (Colletotrichum capsici): 41.27%; EC50 (Fusarium graminearum; F.G): 5.27 ± 0.21 µg/mL (≈ 13.1 µM); Inhibition rate (%) (Fusarium graminearum; F.G, 50 μg mL^−1): 65.7%; EC50 (Rhizoctonia solani): <0.06 ± 0.12 µg/mL; Inhibition rate (%) (Rhizoctonia solani; 50 μg mL^−1): 73.1%; EC50 (Phytophthora capsici [1]): 18.81 ± 0.31 µg/mL (≈ 46.6 µM); Inhibition rate (%) (Phytophthora capsici [1]; 50 μg mL^−1): 69.9%; Inhibition rate (%) (Colletotrichum siamense): 60.9%; EC50 (Colletotrichum musae): 52.51 ± 0.42 µg/mL (≈ 130 µM); Inhibition rate (%) (Colletotrichum musae; 50 μg mL^−1): 51.2%; Inhibition rate (%) [2]: 52.5%; EC50 (Pyricularia oryzae; P.O): 17.89 ± 0.14 µg/mL (≈ 44.3 µM); Inhibition rate (%) (Pyricularia oryzae; P.O, 50 μg mL^−1): 57.8%; Inhibition rate (%) [3]: 51.2% |
| COc1ccc2cc3[n+](cc2c1OC)CCc1cc2c(cc1-3)OCO2 [Berberine hydrochloride] | 80.0 | 16.0 ± 2.0 |  |  |  |  |  |  |  |  |  |  |  |  |  |  |  |  |  |
| COc1ccc(C(=CC(=O)N2CCOCC2)c2ccc(Cl)cc2)cc1OC [Dimethomorph] | 100.0 | 0.0 ± 0.0 |  |  |  |  |  |  |  |  |  |  |  |  |  |  |  |  |  |
| COc1ccc2ccc(=O)oc2c1CC=C(C)C [Osthole] |  |  | 94.3 | 11.4 ± 0.51 (≈ 46.7 µM) | 4.8 | 21.4 ± 0.61 (≈ 87.7 µM) | 65.1 | 75.8 | 16 ± 1.39 (≈ 65.6 µM) | 55.7 | 52.59 ± 0.27 (≈ 215 µM) | 37.7 | 93.3 | 9.18 ± 0.33 (≈ 37.6 µM) | 56.9 | 11.5 ± 0.42 (≈ 47.2 µM) | 89.1 | 68.2 |  |
| CCCC1COC(Cn2cncn2)(c2ccc(Cl)cc2Cl)O1 (stereo not drawn) [Propiconazole] |  |  |  |  |  |  |  |  |  |  |  |  |  |  |  |  |  |  | Control effect (%) (cowpea powdery mildew): 100%; Disease index (±SD) (cowpea powdery mildew): 0 ± 0.0 |
| O=C(OC[C@]1(O)C(=O)C=C[C@H](OC(=O)c2ccccc2)[C@H]1O)c1ccccc1 [zeylenone] |  |  | 77.6 | 17.3 ± 2.29 (≈ 45.2 µM) | 34.4 | 22.94 ± 0.11 (≈ 60 µM) | 52.5 | 76.8 | 4.91 ± 0.12 (≈ 12.8 µM) | 88.1 | 6.98 (≈ 18.3 µM) | 43.5 | 84.3 | 3.37 (≈ 8.81 µM) | 45 | 21.38 ± 0.14 (≈ 55.9 µM) | 66.2 | 43.8 | Control effect (%) (potato late blight; 6.25 μg mL^−1): 0 ± 0.0%; Control effect (%) (potato late blight; 12.5 μg mL^−1): 0 ± 0.0%; Control effect (%) (potato late blight; 25 μg mL^−1): 0 ± 0.0%; Control effect (%) (potato late blight; 50 μg mL^−1): 20 ± 2.0%; control effect on cucumber downy mildew compared with Cyazofamid (Cucumber downy mildew; potted fungicidal activity test, in words): equivalent to that of the chemical fungicide Cyazofamid; Control effect (%) (Cucumber downy mildew; 6.25 μg mL^−1): 25 ± 1.0%; Control effect (%) (Cucumber downy mildew; 12.5 μg mL^−1): 70 ± 3.0%; Control effect (%) (Cucumber downy mildew; 25 μg mL^−1): 88 ± 1.7%; Control effect (%) (Cucumber downy mildew; 50 μg mL^−1): 99 ± 2.0% |
